Reference: US10808003B2, “Amphipathic molecule based on tandem malonate and use thereof” (Industry-University Cooperation Foundation Hanyang …, priority 2017, dated 2020)

Columns and labels:
[1] = biological target: T1, uric acid-xanthine/H+ symporter (UapA) (Emericella nidulans, UniProt Q07307, G411V); experiment: Thermal/structural stability of UapA by CPM fluorescence assay; assay type: biochemical, Aspergillus nidulans; conditions: for ability to conserve UapA transporter in a folded state: 125 minutes at 40° C.
T1 construct: GFP; made in house; host or cells: Saccharomyces cerevisiae FGY217
Procedure: An experiment of measuring structural stability of a uric acid-xanthine/H+ symporter (UapA) separated from Aspergillus nidulans by TMG was performed. The structural stability of UapA was evaluated using a sulfhydryl-specific fluorophore and N-[4-(7-diethylamino-4-methyl-3-coumarinyl)phenyl]maleimide (CPM).
Specifically, UapAG411V1-11 (hereinafter, referred to as “UapA”) expressed as a GFP fusion protein from a Saccharomyces cerevisiae FGY217 strain, and the protein was separated using a sample buffer (20 mM Tris (pH 7.5), 150 mM NaCl, 0.03% DDM, 0.6 mM xanthine) according to a method disclosed in the article written by J. Leung et al. (Mol. Membr. Biol. 2013, 30, 32-42). The protein having a molecular weight of 100 kDa was concentrated to approximately 10 mg/mL using a cut-off filter (Millipore). The protein was diluted with a buffer containing each of the TMG-As (TMG-A11, TMG-A12, TMG-A13 and TMG-A14), TMG-Ts (TMG-T11, TMG-T12, TMG-T13 and TMG-T14), MNG-3 or DDM at a ratio of 1:150 to reach the final concentration of CMC+0.04 wt % or CMC+0.2 wt % in a Greiner 96-well plate. A CPM dye (Invitrogen) stored in DMSO (Sigma) was diluted with a staining buffer (20 mM Tris (pH 7.5), 150 mM NaCl, 0.03% DDM, 5 mM EDTA), and 3 μL of the staining buffer was added to each sample. The reaction mixture was incubated at a constant temperature for 125 minutes at 40° C. Fluorescence emission was recorded using a microplate spectrofluorometer set to each of excitation and emission wavelengths of 387 nm and 463 nm. A relative amount of folded proteins was plotted over time using GraphPad Prism.

[2] = Hydrodynamic radius of micelles by dynamic light scattering (DLS); assay type: physicochemical; conditions: for Rh (nm), hydrodynamic radius of micelles: micelles formed by each agent at 1.0 wt %; for micelle size and homogeneity in words: 1.0 wt %, FIGS. 5 and 6
Procedure: A method of measuring the radius of the micelles is not particularly limited, and any method well known in the art, for example, a DLS test may be used.
(§1) Specifically, a CMC was measured using fluorescent staining and diphenylhexatriene (DPH), and the hydrodynamic radii (Rh) of micelles formed by each agent (1.0 wt %) were measured by a DLS test. The measured results were compared with those for the conventional amphipathic molecule (detergent), DDM, and thus are shown in Table 1.

[3] = Critical micelle concentration by fluorescent staining with diphenylhexatriene (DPH); assay type: physicochemical; conditions: aqueous solution
Procedure: A method of measuring CMC is not particularly limited, and any method well known in the art, for example, a fluorescent staining method using diphenylhexatriene (DPH) may be used.
as §1

[4] = system: LeuT (leucine transporter); experiment: LeuT stability by [3H]-Leu substrate binding, scintillation proximity assay (SPA); assay type: biochemical, Aquifex aeolicus; conditions: for substrate-binding ability of LeuT: TMGs or DDM at CMC+0.04 wt %, 10 days at room temperature; for activity of LeuT after incubation, relative to DDM: CMC+0.04 wt %, after incubation at room temperature; for activity of LeuT after incubation, relative to DDM / activity of LeuT over time: FIG. 13a; for activity of LeuT over time: TMMs or DDM at CMC+0.04 wt %, incubation at room temperature
Procedure: An experiment of measuring LeuT protein stability for TMGs and TMMs was performed. (a) CMC+0.04 wt % or (b) CMC+0.2 wt % of each amphipathic molecule was used, and the evaluation of the LeuT protein stability was performed by taking an advantage of a characteristic of LeuT binding to a substrate through a scintillation proximity assay (SPA) using [^3H]-Leu. […]
Specifically, wild type LeuT (leucine transporter) derived from a thermophilic bacterium, Aquifex aeolicus, was purified by a previously-disclosed method (G. Deckert et al., Nature 1998, 392, 353-358). LeuT was expressed in E. coli C41 (DE3) transformed with pET16b encoding a C-terminus 8×His-tagged transporter (the expression plasmid was provided by Dr E. Gouaux, Vollum Institute, Portland, Oreg., USA). In summary, following isolation of a bacterial membrane and lysis with 1% (w/v) DDM, the protein was allowed to bind to a Ni^2+-NTA resin (Life Technologies, Denmark), and eluted in 20 mM Tris-HCl (pH 8.0), 1 mM NaCl, 199 mM KCl, 0.05% (w/v) DDM and 300 mM imidazole. Afterward, the purified LeuT (approximately 1.5 mg/ml) was diluted with the same buffer used above, from which DDM and imidazole were removed, and then supplemented with TMGs or DDM at the final concentration of CMC+0.04% (w/v). […] SPA was performed using a buffer containing 450 mM NaCl and each of the TMGs and TMMs at the predetermined concentration. The SPA reaction is performed in the presence of 20 nM [^3H]-Leucine and 1.25 mg/ml copper chelate (His-Tag) YSi beads (Perkin Elmer, Denmark). A total [^3H]-Leucine binding degree of each sample was measured using a MicroBeta liquid scintillation counter (Perkin Elmer).

T1 sequence (Q07307 12-574 G411V): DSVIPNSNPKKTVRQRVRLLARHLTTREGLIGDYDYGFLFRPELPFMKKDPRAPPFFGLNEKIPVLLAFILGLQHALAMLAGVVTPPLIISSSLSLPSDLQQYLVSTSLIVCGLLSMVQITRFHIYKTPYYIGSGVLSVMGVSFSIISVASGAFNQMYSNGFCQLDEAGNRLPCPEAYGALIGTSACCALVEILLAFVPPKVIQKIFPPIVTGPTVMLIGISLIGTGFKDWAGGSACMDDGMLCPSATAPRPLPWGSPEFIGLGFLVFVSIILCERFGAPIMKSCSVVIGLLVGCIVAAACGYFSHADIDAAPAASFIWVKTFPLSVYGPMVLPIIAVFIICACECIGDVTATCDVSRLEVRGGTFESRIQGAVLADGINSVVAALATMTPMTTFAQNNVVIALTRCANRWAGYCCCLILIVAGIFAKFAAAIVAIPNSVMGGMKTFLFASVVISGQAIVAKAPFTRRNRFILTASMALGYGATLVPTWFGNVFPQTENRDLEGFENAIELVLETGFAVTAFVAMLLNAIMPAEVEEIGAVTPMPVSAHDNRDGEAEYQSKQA

SMILES	ability to maintain the UapA transporter structure, comparison with MNG-3 and DDM ([1]; concentration not given)	ability to conserve UapA transporter in a folded state ([1]; CMC+0.04 wt %, FIG. 9)	ability to conserve UapA transporter in a folded state ([1]; CMC+0.2 wt %, FIG. 10)	Rh (nm), hydrodynamic radius of micelles [2] [nm]	CMC [3] [mM]	CMC (wt %) [3] [wt %]	substrate-binding ability of LeuT [4]	activity of LeuT after incubation, relative to DDM [4]	micelle size and homogeneity in words [2]	activity of LeuT over time [4]	overall LeuT stabilisation characteristic among TMMs ([4]; CMC+0.04 wt % and CMC+0.2 wt %, FIGS. 13a and 13b)
CCCCCCCCCCC(CCCCCCCCCC)(CO[C@@H]1O[C@H](CO)[C@@H](O[C@H]2O[C@H](CO)[C@@H](O)[C@H](O)[C@H]2O)[C@H](O)[C@H]1O)CO[C@@H]1O[C@H](CO)[C@@H](O[C@H]2O[C@H](CO)[C@@H](O)[C@H](O)[C@H]2O)[C@H](O)[C@H]1O [MNG-3, reference compound]	a little superior to DDM	–	–	–	–	–	–	–	–	–	–
CCCCCCCCCCCC(CCCC(CCCCCCCCCCC)(CO[C@@H]1OC(CO)[C@@H](O)C(O)C1O)CO[C@@H]1OC(CO)[C@@H](O)C(O)C1O)(CO[C@@H]1OC(CO)[C@@H](O)C(O)C1O)CO[C@@H]1OC(CO)[C@@H](O)C(O)C1O (stereo partly drawn) [TMG-A11]	–	the least excellent in transporter stability	the least effective, and had lower stability than DDM	3.1 ± 0.15	~0.015	~0.0017	–	–	–	–	–
CCCCCCCCCCCOCC(CO[C@@H]1OC(CO)[C@@H](O)C(O)C1O)(CO[C@@H]1OC(CO)[C@@H](O)C(O)C1O)CSCC(COCCCCCCCCCCC)(CO[C@@H]1OC(CO)[C@@H](O)C(O)C1O)CO[C@@H]1OC(CO)[C@@H](O)C(O)C1O (stereo partly drawn) [TMG-T11]	–	–	the least effective, and had lower stability than DDM	3.0 ± 0.07	~0.020	~0.0025	a better characteristic than DDM	–	–	–	–
CCCCCCCCCCCCOCC(CO[C@@H]1OC(CO)[C@@H](O)C(O)C1O)(CO[C@@H]1OC(CO)[C@@H](O)C(O)C1O)CSCC(COCCCCCCCCCCCC)(CO[C@@H]1OC(CO)[C@@H](O)C(O)C1O)CO[C@@H]1OC(CO)[C@@H](O)C(O)C1O (stereo partly drawn) [TMG-T12]	–	–	–	3.1 ± 0.06	~0.015	~0.0019	a better characteristic than DDM	–	–	–	–
CC(C)CCC[C@@H](C)C1CCC2C3CCC4CC(OCC(CO[C@@H]5OC(CO)[C@@H](O[C@H]6OC(CO)[C@@H](O)C(O)C6O)C(O)C5O)(CO[C@@H]5OC(CO)[C@@H](O[C@H]6OC(CO)[C@@H](O)C(O)C6O)C(O)C5O)CSCC(COC5CCC6(C)C(CCC7C6CCC6(C)C7CCC6[C@H](C)CCCC(C)C)C5)(CO[C@@H]5OC(CO)[C@@H](O[C@H]6OC(CO)[C@@H](O)C(O)C6O)C(O)C5O)CO[C@@H]5OC(CO)[C@@H](O[C@H]6OC(CO)[C@@H](O)C(O)C6O)C(O)C5O)CCC4(C)C3CCC21C (stereo partly drawn) [TMM-A27]	–	–	–	4.1 ± 0.10	~0.006	~0.00014	–	protein activity similar to DDM	large	–	–
CCCCCCCCCCC(CCCCCCCCCC)COCC(CO[C@@H]1OC(CO)[C@@H](O[C@H]2OC(CO)[C@@H](O)C(O)C2O)C(O)C1O)(CO[C@@H]1OC(CO)[C@@H](O[C@H]2OC(CO)[C@@H](O)C(O)C2O)C(O)C1O)CSCC(COCC(CCCCCCCCCC)CCCCCCCCCC)(CO[C@@H]1OC(CO)[C@@H](O[C@H]2OC(CO)[C@@H](O)C(O)C2O)C(O)C1O)CO[C@@H]1OC(CO)[C@@H](O[C@H]2OC(CO)[C@@H](O)C(O)C2O)C(O)C1O (stereo partly drawn) [TMM-C22]	–	–	–	3.6 ± 0.09	~0.002	~0.00044	–	two-fold higher than that of the protein dissolved in DDM	–	slightly increased over time	–
CCCCCCCCCCCC(CCCCCCCCCCC)COCC(CO[C@@H]1OC(CO)[C@@H](O[C@H]2OC(CO)[C@@H](O)C(O)C2O)C(O)C1O)(CO[C@@H]1OC(CO)[C@@H](O[C@H]2OC(CO)[C@@H](O)C(O)C2O)C(O)C1O)CSCC(COCC(CCCCCCCCCCC)CCCCCCCCCCC)(CO[C@@H]1OC(CO)[C@@H](O[C@H]2OC(CO)[C@@H](O)C(O)C2O)C(O)C1O)CO[C@@H]1OC(CO)[C@@H](O[C@H]2OC(CO)[C@@H](O)C(O)C2O)C(O)C1O (stereo partly drawn) [TMM-C24]	–	–	–	3.9 ± 0.08	~0.0015	~0.00034	–	two-fold higher than that of the protein dissolved in DDM	–	slightly increased over time	the most excellent characteristic and was superior to DDM
CCCCCCCCCCCCC(CCCCCCCCCCCC)COCC(CO[C@@H]1OC(CO)[C@@H](O[C@H]2OC(CO)[C@@H](O)C(O)C2O)C(O)C1O)(CO[C@@H]1OC(CO)[C@@H](O[C@H]2OC(CO)[C@@H](O)C(O)C2O)C(O)C1O)CSCC(COCC(CCCCCCCCCCCC)CCCCCCCCCCCC)(CO[C@@H]1OC(CO)[C@@H](O[C@H]2OC(CO)[C@@H](O)C(O)C2O)C(O)C1O)CO[C@@H]1OC(CO)[C@@H](O[C@H]2OC(CO)[C@@H](O)C(O)C2O)C(O)C1O (stereo partly drawn) [TMM-C26]	–	–	–	4.3 ± 0.07	~0.0015	~0.00034	–	protein activity similar to DDM	–	–	–
CC1CCC2(OC1)OC1CC3C4CC=C5CC(OCC(CO[C@@H]6OC(CO)[C@@H](O[C@H]7OC(CO)[C@@H](O)C(O)C7O)C(O)C6O)(CO[C@@H]6OC(CO)[C@@H](O[C@H]7OC(CO)[C@@H](O)C(O)C7O)C(O)C6O)CSCC(COC6CCC7(C)C(=CCC8C7CCC7(C)C8CC8OC9(CCC(C)CO9)C(C)C87)C6)(CO[C@@H]6OC(CO)[C@@H](O[C@H]7OC(CO)[C@@H](O)C(O)C7O)C(O)C6O)CO[C@@H]6OC(CO)[C@@H](O[C@H]7OC(CO)[C@@H](O)C(O)C7O)C(O)C6O)CCC5(C)C4CCC3(C)C1C2C (stereo partly drawn) [TMM-D27]	–	–	–	3.1 ± 0.07	~0.010	~0.0024	–	protein activity similar to DDM	relatively small micelles	–	–
CC(C)CCC[C@@H](C)C1CCC2C3CC=C4CC(OCC(CO[C@@H]5OC(CO)[C@@H](O[C@H]6OC(CO)[C@@H](O)C(O)C6O)C(O)C5O)(CO[C@@H]5OC(CO)[C@@H](O[C@H]6OC(CO)[C@@H](O)C(O)C6O)C(O)C5O)CSCC(COC5CCC6(C)C(=CCC7C6CCC6(C)C7CCC6[C@H](C)CCCC(C)C)C5)(CO[C@@H]5OC(CO)[C@@H](O[C@H]6OC(CO)[C@@H](O)C(O)C6O)C(O)C5O)CO[C@@H]5OC(CO)[C@@H](O[C@H]6OC(CO)[C@@H](O)C(O)C6O)C(O)C5O)CCC4(C)C3CCC21C (stereo partly drawn) [TMM-E27]	–	–	–	4.7 ± 0.10	~0.008	~0.00018	–	protein activity similar to DDM	large	–	–
